Test results taken from ChEMBL document CHEMBL3885881, “DrugMatrix”.

Species on record: Rattus norvegicus
Experiment: DrugMatrix - Regimen: Daily Repeat
Assay type: toxicity, organism-based, Sprague-Dawley
Design: regimen Daily Repeat, gender Male, age 6-8 weeks
Details: in vivo, po, route oral GAVAGE, […]; for ABSOLUTE BASOPHIL / ABSOLUTE EOSINOPHIL / ABSOLUTE LYMPHOCYTE / ABSOLUTE MONOCYTE / ABSOLUTE SEGMENTED NEUTROPHIL / BASOPHIL / EOSINOPHIL / ERYTHROCYTE COUNT / HEMATOCRIT / HEMOGLOBIN / LEUKOCYTE COUNT / LYMPHOCYTE / MEAN CORPUSCULAR HEMOGLOBIN / MEAN CORPUSCULAR HEMOGLOBIN CONCENTRATION / MEAN CORPUSCULAR VOLUME / MONOCYTE / NEUTROPHIL / NUCLEATED RED BLOOD CELLS / PLATELET COUNT: tissue Blood; for ALANINE AMINOTRANSFERASE / ALBUMIN / ALKALINE PHOSPHATASE / ASPARTATE AMINOTRANSFERASE / BLOOD UREA NITROGEN / CARBON DIOXIDE / CHLORIDE / CHOLESTEROL / CREATINE PHOSPHOKINASE / CREATININE / GLUCOSE / LACTATE DEHYDROGENASE / LIPASE / PHOSPHORUS / POTASSIUM / SODIUM / TOTAL BILIRUBIN / TOTAL PROTEIN / URIC ACID: tissue Plasma
[1] = 40 mg/kg, 72 h, dose level Low, time 3 day
[2] = 40 mg/kg, 120 h, dose level Low, time 5 day
[3] = 444 mg/kg, 72 h, dose level High, time 3 day
[4] = 444 mg/kg, 120 h, dose level High, time 5 day

COC(=O)c1ccccc1O [METHYL SALICYLATE]
ABSOLUTE BASOPHIL [1]: 0 CELLS/uL | ABSOLUTE EOSINOPHIL [1]: 96.67 CELLS/uL | ABSOLUTE LYMPHOCYTE [1]: 12979.67 CELLS/uL | ABSOLUTE MONOCYTE [1]: 290.67 CELLS/uL | ABSOLUTE SEGMENTED NEUTROPHIL [1]: 1366.33 CELLS/uL | BASOPHIL [1]: 0% | EOSINOPHIL [1]: 0.67% | ERYTHROCYTE COUNT [1]: 5.47 x10E6/uL | HEMATOCRIT [1]: 34.27% | HEMOGLOBIN [1]: 13.3 G/DL | LEUKOCYTE COUNT [1]: 14.73 x10E3/uL | LYMPHOCYTE [1]: 88% | MEAN CORPUSCULAR HEMOGLOBIN [1]: 24.33 pg | MEAN CORPUSCULAR HEMOGLOBIN CONCENTRATION [1]: 38.83 G/DL | MEAN CORPUSCULAR VOLUME [1]: 62.67 fL | MONOCYTE [1]: 2% | NEUTROPHIL [1]: 9.33% | NUCLEATED RED BLOOD CELLS [1]: 0 /100WBC | PLATELET COUNT [1]: 1233.67 x10E3/uL | ALANINE AMINOTRANSFERASE [1]: 69.33 u/L | ALBUMIN [1]: 3.93 G/DL | ALKALINE PHOSPHATASE [1]: 411 u/L | ASPARTATE AMINOTRANSFERASE [1]: 90 u/L | BLOOD UREA NITROGEN [1]: 10.67 mg/dL | CARBON DIOXIDE [1]: 25 mmol/L | CHLORIDE [1]: 101 MEQ/L | CHOLESTEROL [1]: 68 mg/dL | CREATINE PHOSPHOKINASE [1]: 276 u/L | CREATININE [1]: 0.17 mg/dL | GLUCOSE [1]: 149.67 mg/dL | LACTATE DEHYDROGENASE [1]: 146.67 u/L | LIPASE [1]: 12 u/L | PHOSPHORUS [1]: 11.03 mg/dL | POTASSIUM [1]: 6.55 MEQ/L | SODIUM [1]: 142.03 MEQ/L | TOTAL BILIRUBIN [1]: 0.2 mg/dL | TOTAL PROTEIN [1]: 5.6 G/DL | URIC ACID [1]: 1.37 mg/dL | ABSOLUTE BASOPHIL [2]: 0 CELLS/uL | ABSOLUTE EOSINOPHIL [2]: 46 CELLS/uL | ABSOLUTE LYMPHOCYTE [2]: 12546.67 CELLS/uL | ABSOLUTE MONOCYTE [2]: 258.67 CELLS/uL | ABSOLUTE SEGMENTED NEUTROPHIL [2]: 1848.67 CELLS/uL | BASOPHIL [2]: 0% | EOSINOPHIL [2]: 0.33% | ERYTHROCYTE COUNT [2]: 5.18 x10E6/uL | HEMATOCRIT [2]: 34.3% | HEMOGLOBIN [2]: 13.77 G/DL | LEUKOCYTE COUNT [2]: 14.7 x10E3/uL | LYMPHOCYTE [2]: 85.67% | MEAN CORPUSCULAR HEMOGLOBIN [2]: 26.7 pg | MEAN CORPUSCULAR HEMOGLOBIN CONCENTRATION [2]: 40.13 G/DL | MEAN CORPUSCULAR VOLUME [2]: 66.53 fL | MONOCYTE [2]: 1.67% | NEUTROPHIL [2]: 12.33% | NUCLEATED RED BLOOD CELLS [2]: 0 /100WBC | PLATELET COUNT [2]: 1368.67 x10E3/uL | ALANINE AMINOTRANSFERASE [2]: 59 u/L | ALBUMIN [2]: 4.17 G/DL | ALKALINE PHOSPHATASE [2]: 468.33 u/L | ASPARTATE AMINOTRANSFERASE [2]: 97.67 u/L | BLOOD UREA NITROGEN [2]: 11 mg/dL | CARBON DIOXIDE [2]: 34.67 mmol/L | CHLORIDE [2]: 100.67 MEQ/L | CHOLESTEROL [2]: 60.33 mg/dL | CREATINE PHOSPHOKINASE [2]: 364.67 u/L | CREATININE [2]: 0.16 mg/dL | GLUCOSE [2]: 144 mg/dL | LACTATE DEHYDROGENASE [2]: 490.67 u/L | LIPASE [2]: 11 u/L | PHOSPHORUS [2]: 10.47 mg/dL | POTASSIUM [2]: 6.4 MEQ/L | SODIUM [2]: 143.33 MEQ/L | TOTAL BILIRUBIN [2]: 0.2 mg/dL | TOTAL PROTEIN [2]: 5.73 G/DL | URIC ACID [2]: 1.43 mg/dL | ABSOLUTE BASOPHIL [3]: 0 CELLS/uL | ABSOLUTE EOSINOPHIL [3]: 0 CELLS/uL | ABSOLUTE LYMPHOCYTE [3]: 15083 CELLS/uL | ABSOLUTE MONOCYTE [3]: 294 CELLS/uL | ABSOLUTE SEGMENTED NEUTROPHIL [3]: 1723 CELLS/uL | BASOPHIL [3]: 0% | EOSINOPHIL [3]: 0% | ERYTHROCYTE COUNT [3]: 6.27 x10E6/uL | HEMATOCRIT [3]: 39.33% | HEMOGLOBIN [3]: 15.27 G/DL | LEUKOCYTE COUNT [3]: 17.1 x10E3/uL | LYMPHOCYTE [3]: 88.33% | MEAN CORPUSCULAR HEMOGLOBIN [3]: 24.37 pg | MEAN CORPUSCULAR HEMOGLOBIN CONCENTRATION [3]: 38.83 G/DL | MEAN CORPUSCULAR VOLUME [3]: 62.8 fL | MONOCYTE [3]: 1.67% | NEUTROPHIL [3]: 10% | NUCLEATED RED BLOOD CELLS [3]: 0 /100WBC | PLATELET COUNT [3]: 1017 x10E3/uL | ALANINE AMINOTRANSFERASE [3]: 109 u/L | ALBUMIN [3]: 4.4 G/DL | ALKALINE PHOSPHATASE [3]: 443.33 u/L | ASPARTATE AMINOTRANSFERASE [3]: 121 u/L | BLOOD UREA NITROGEN [3]: 11.33 mg/dL | CARBON DIOXIDE [3]: 27.67 mmol/L | CHLORIDE [3]: 99.33 MEQ/L | CHOLESTEROL [3]: 62.33 mg/dL | CREATINE PHOSPHOKINASE [3]: 782 u/L | CREATININE [3]: 0.19 mg/dL | GLUCOSE [3]: 148.33 mg/dL | LACTATE DEHYDROGENASE [3]: 151.33 u/L | LIPASE [3]: 11.67 u/L | PHOSPHORUS [3]: 13.93 mg/dL | POTASSIUM [3]: 5.57 MEQ/L | SODIUM [3]: 143.77 MEQ/L | TOTAL BILIRUBIN [3]: 0.2 mg/dL | TOTAL PROTEIN [3]: 5.73 G/DL | URIC ACID [3]: 1 mg/dL | ABSOLUTE BASOPHIL [4]: 0 CELLS/uL | ABSOLUTE EOSINOPHIL [4]: 54.67 CELLS/uL | ABSOLUTE LYMPHOCYTE [4]: 13302.33 CELLS/uL | ABSOLUTE MONOCYTE [4]: 273 CELLS/uL | ABSOLUTE SEGMENTED NEUTROPHIL [4]: 1603.33 CELLS/uL | BASOPHIL [4]: 0% | EOSINOPHIL [4]: 0.33% | ERYTHROCYTE COUNT [4]: 6.16 x10E6/uL | HEMATOCRIT [4]: 38.17% | HEMOGLOBIN [4]: 14.63 G/DL | LEUKOCYTE COUNT [4]: 15.23 x10E3/uL | LYMPHOCYTE [4]: 87.67% | MEAN CORPUSCULAR HEMOGLOBIN [4]: 23.73 pg | MEAN CORPUSCULAR HEMOGLOBIN CONCENTRATION [4]: 38.4 G/DL | MEAN CORPUSCULAR VOLUME [4]: 61.93 fL | MONOCYTE [4]: 2% | NEUTROPHIL [4]: 10% | NUCLEATED RED BLOOD CELLS [4]: 0.33 /100WBC | PLATELET COUNT [4]: 914.67 x10E3/uL | ALANINE AMINOTRANSFERASE [4]: 125.67 u/L | ALBUMIN [4]: 4.53 G/DL | ALKALINE PHOSPHATASE [4]: 515 u/L | ASPARTATE AMINOTRANSFERASE [4]: 127.67 u/L | BLOOD UREA NITROGEN [4]: 18.67 mg/dL | CARBON DIOXIDE [4]: 29 mmol/L | CHLORIDE [4]: 103 MEQ/L | CHOLESTEROL [4]: 65.33 mg/dL | CREATINE PHOSPHOKINASE [4]: 548 u/L | CREATININE [4]: 0.23 mg/dL | GLUCOSE [4]: 140.67 mg/dL | LACTATE DEHYDROGENASE [4]: 324.33 u/L | LIPASE [4]: 11 u/L | PHOSPHORUS [4]: 13.1 mg/dL | POTASSIUM [4]: 5.71 MEQ/L | SODIUM [4]: 146.3 MEQ/L | TOTAL BILIRUBIN [4]: 0.27 mg/dL | TOTAL PROTEIN [4]: 5.97 G/DL | URIC ACID [4]: 0.9 mg/dL
